One series concerns A. fumigatus (Af-293). Put plainly: microbe, parasite or virus in culture. Format: cell-based, Aspergillus fumigatus. Particulars: RPMI 1640 with 2% D-glucose, HEPES, 10^6 cells/mL, 24 and 48 h at 35 °C, no visible growth; triplicates, repeated twice. The procedure: The antifungal activity of all ten synthesized linear and cyclic peptides was evaluated against C. albicans (ATCC 60193), C. parapsilosis (ATCC 22019), and A. fumigatus (AF-293). Fluconazole and amphotericin B were used as positive controls for this study. The MIC was determined at concentrations in wells with no visible fungal growth.
A. fumigatus (Af-293) was cultured on Sabouraud dextrose agar (SDA) (Lot #3431660, Oxoid) for 48–72 h at 35 °C to obtain fresh and mature colonies which reached the proper sporulation then used to prepare the inoculum. The colonies were covered with Phosphate-Buffered Saline (PBS) containing 0.025% Tween-20, scraped from the plate, and carefully collected into a sterile tube. The suspension was centrifuged at 3000 RPM for 5 min after the separation between conidia and hyphae. The supernatant was discarded, and the pellet was resuspended in 5 mL of PBS.
Peptide concentrations of 50, 25, 12.5, 6.25, and 3.1 μg/mL were tested in triplicate. Each well of a 96-well plate was inoculated with the prepared inoculum suspension, which was diluted with RPMI 1640 medium containing L-glutamine, supplemented with 2% D-glucose, and the pH adjusted using HEPES buffer. The plates were incubated for 50 min at 35 °C to achieve a final cell concentration of 10^6 cells/mL. The control wells contained the same inoculum without any compound. The plates were then incubated for 24 and 48 h at 35 °C. Fungal growth was visualized, and the minimum inhibitory concentration (MIC) was determined as the lowest peptide concentration, where no growth was observed.

The test system of series [1] is K. pneumoniae (ATCC BAA-1705). Put plainly: microbe, parasite or virus in culture. Format: cell-based, Klebsiella pneumoniae. The note with it: ATCC BAA-1705, 24 h. In a few lines: (§1)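 MICs were determined by CLSI broth microdilution in Mueller Hinton broth using 2-fold serial peptide dilutions, top well 256 µg/mL […]. Inoculum was a 0.5 McFarland suspension diluted 1/150; plates ran 24 h at 37 °C, and MIC was the lowest concentration with no visible growth.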

The test system of series [2] is S. pneumoniae (ATCC 51938). Put plainly: microbe, parasite or virus in culture. The note with it: ATCC 51938, 24 h. It is filed as cell-based, Streptococcus pneumoniae. Here is the method: (§2) The antibacterial activity of all ten synthesized linear and cyclic peptides was evaluated against MRSA (ATCC BAA-1556), S. aureus (ATCC 29213), E. faecium (ATCC 700221), S. pneumoniae (ATCC 51938), E. faecalis (ATCC 29212), B. subtilis (ATCC-6633), K. pneumoniae (ATCC BAA-1705), P. aeruginosa (ATCC 27883), and E. coli (ATCC 25922). Meropenem and daptomycin were used as positive controls for this study. Certain peptides are marked as “NT” (not tested) against specific bacterial strains based on initial screening data. […] The MIC was determined by micro-broth dilution protocol, where the minimal concentrations were determined to be in wells with no visible bacterial growth.
(§3) All bacterial experiments were carried out in a laminar flow hood (Labconco, Kansas City, MO, USA). The bacterial strains were cultured following the guidelines set by the Clinical Laboratory Standards Institute (CLSI). Antibacterial assays were performed using a standard microtiter dilution method as described in previous studies. The minimum inhibitory concentration (MIC) refers to the lowest peptide concentration that inhibits bacterial growth in wells with no visible bacterial growth. MIC was determined by micro-broth dilution. Bacteria were cultured overnight in 6 mL of Luria Broth (LB). A stock solution of the peptide was prepared in water and DMSO, and a test compound solution with a concentration of 256 µg/mL was made in LB. Meropenem, with a solubility of 8 mg/mL, was prepared as a stock solution at 4 mg/500 µL. An aliquot of the overnight bacteria culture was diluted in normal saline (NS, 1 mL) until achieving a 0.5 McFarland turbidity (1.5 × 10^8 bacterial cell CFU/mL). A 0.5 McFarland compared solution (60 µL) was added to Mueller Hinton Broth (MH) 8940 µL to generate a 1/150 dilution. A 200 µL test compound solution was added to the first well of a 96-well plate, and the remaining wells (2–12) were filled with 100 µL of MH media using a multi-channel pipette from a sterile reservoir. A concentration of […] of the tested peptides was prepared from a stock solution of the samples for testing in Muller−Hinton broth MH media. Peptides stock solution was dissolved in 5% DMSO in water, and the final concentration of DMSO in the first well of assay plate was 2.5% DMSO/H2O and diluted across the assay plate.
(§4) A 100 µL sample from well 1 was pipetted into well 2, and the solution was mixed thoroughly by pipetting up and down. Next, 100 µL was transferred from well 2 to well 3, followed by thorough mixing. This 2-fold serial dilution process continued through well 11, with no additions made to well 12. The final 100 µL from well 11 was discarded. After completing the serial dilution, each well (1–12) contained 100 µL of solution. The bacterial culture in MH media was vortexed and transferred to a sterile reservoir, from which 100 µL was added to each well using a 12-channel pipette. (Note: The dilutions were further diluted upon adding the bacterial solution; for example, the concentration in well 1 started at […] after the addition of the bacterial culture.) The plates were incubated overnight at 37 °C for 24 h. All experiments were performed in triplicate and repeated twice, with controls consisting of bacteria in MH media and positive controls of daptomycin or meropenem.

For a further series, the system named is MES-SA cells. The note with it: cited from earlier work. The text has this:
(§5) We have previously reported in vitro cytotoxicity of the synthesized peptides in a range of mammalian cell lines, including human ovarian adenocarcinoma cells (SK-OV-3), human peripheral blood lymphoblast cells (CCRF-CEM), healthy human embryonic kidney cells (HEK-293), human mammary adenocarcinoma cells (MDA-MB-468), normal pig kidney epithelial cells (LLC-PK1), and human uterine sarcoma fibroblast cells (MES-SA).

The test system of another series is MDA-MB-468 cells. Particulars: cited from earlier work.
Excerpt: as §5

A further series deals with LLC-PK1 cells. Particulars: cited from earlier work.
Excerpt: as §5

The subject of series [3] is P. aeruginosa (ATCC 27883). Put plainly: microbe, parasite or virus in culture. The note with it: ATCC 27883, 24 h. It is filed as cell-based, Pseudomonas aeruginosa. In short, it runs like this: as §1
The next series deals with S. aureus (ATCC 29213). Put plainly: microbe, parasite or virus in culture. Format: cell-based, Staphylococcus aureus. The note with it: ATCC 29213, 24 h. Here is the method:
as §2, §3, §4

A further series relates to MRSA (ATCC BAA-1556). The experiment in a line: microbe, parasite or virus in culture. Format: cell-based, Methicillin-Resistant Staphylococcus aureus. Particulars: ATCC BAA-1556, 24 h. In a few lines: as §1

Results on one compound are retold here after PMC11763264, “Antibacterial and Antifungal Activities of Linear and Cyclic Peptides Containing Arginine, Tryptophan, and Diphenylalanine” (Antibiotics, 2025).

Converted amounts (≈) assume the structure as drawn. Non-standard residues stand in square brackets, D forms with d. Residues, ends and D or L forms follow the SMILES beside them. Dip = N[C@H](C(=O)O)C(c1ccccc1)c1ccccc1

`N=C(N)NCCC[C@@H]1NC(=O)[C@H](C(c2ccccc2)c2ccccc2)NC(=O)[C@H](CCCNC(=N)N)NC(=O)[C@H](C(c2ccccc2)c2ccccc2)NC(=O)[C@H](CCCNC(=N)N)NC(=O)[C@H](C(c2ccccc2)c2ccccc2)NC(=O)[C@H](CCCNC(=N)N)NC(=O)[C@H](C(c2ccccc2)c2ccccc2)NC(=O)[C@H](CCCNC(=N)N)NC(=O)[C@H](C(c2ccccc2)c2ccccc2)NC1=O` [[DipR]5] (cyclo([Dip]R[Dip]R[Dip]R[Dip]R[Dip]R)): the MIC is 1.6 µM (≈ 3.04 µg/mL) against A. fumigatus (Af-293); 25 µM (≈ 47.4 µg/mL) in series [1]; 0.39 µM (≈ 0.74 µg/mL) in series [2]; 25 µM (≈ 47.4 µg/mL) in series [3]; 3.1 µM (≈ 5.88 µg/mL) in the series with S. aureus (ATCC 29213); 3.1 µM (≈ 5.88 µg/mL) in the series with MRSA (ATCC BAA-1556). Besides, the “cytotoxicity against MES-SA cells” value with MES-SA cells is “moderate effects”. In addition, in the series with MDA-MB-468 cells, the “cytotoxicity against MDA-MB-468 cells” value is listed as “reduced cytotoxicity”. Further, in the series with LLC-PK1 cells, the “cytotoxicity against LLC-PK1 cells” value is listed as “reduced cytotoxicity”.
